Source: PubChem BioAssay AID1918999 (Molecular Pharmacology Branch, DTP, NCI, 2023)
Values joined by “and” are separate entries in the source; they are usually repeats but may differ in a detail not shown here. Equal values may be shown once.

Test system: 556581-035-R-J1-PDC complex spheroid growth
Assay: Anticancer human tumor 556581-035-R-J1-PDC patient-derived ovarian carcinoma cell line growth inhibition [AhR]
Settings: for viability, T/C: stronger effect = lower value
Excerpt: Multicellular complex tumor spheroid response to aryl hydrocarbon receptor antagonists in combination with a variety of drugs and investigational agents in selected tumor cell lines
The current study was undertaken to assess response to aryl hydrocarbon receptor antagonists in combination with standard-of-care drugs and investigational agents in solid tumor complex spheroid models. Complex spheroids include a stromal component modeled by human endothelial cells (HUVEC) and fibroblasts modeled by human mesenchymal stem cells (MSCs). The concentration ranges selected for each drug and investigational agent were based upon clinically achievable concentrations if the clinical Cmax of the agent was known.
Compounds. The drugs and investigational agents: BAY 2416964 (NSC825713), GNF351 (NSC835774), CH-223191 (NSC835775), CPI-455 (NSC825282), aza-TdCyd (NSC777586), decitabine (NSC127716), belinostat (NSC758774), entinostat (NSC756642), pevonedistat (NSC761192), tazemetostat (NSC777109), talazoparib (NSC765396), olaparib (NSC753686), selinexor (NSC780203), nedisertib (M3814, NSC802822), bortezomib (NSC756655), venetoclax (NSC766270), doxorubicin (NSC123127), elimusertib (BAY189344, NSC800525), ceralasertib (AZD6738, NSC777638), TAK-243 (NSC785004), alisertib (NSC759677), etoposide (NSC141540), topotecan (NSC609699), eribulin (NSC707389), gemcitabine (NSC613327), carboplatin (NSC241240), cisplatin (NSC119875), and SN-38 (NSC673596) were obtained from the National Cancer Institute (NCI) Developmental Therapeutics Program Chemical Repository (32). The FDA-approved anticancer drug set is available from the Developmental Therapeutics Program at https://dtp.cancer.gov/organization/dscb/obtaining/available plates.htm. […] The stock solutions were prepared in dimethyl sulfoxide (DMSO, Sigma-Aldrich, St. Louis, MO, cat. D2650), except for the platinum compounds which were prepared in saline (Quality Biological, Gaithersburg, MD, cat. 114-055-101), at 800-fold the tested concentration and stored at -70 degrees C prior to their use. All drugs and investigational agents were tested over a range starting from a high concentration at or near the clinical Cmax and decreasing in half-log increments. If the clinical Cmax for an agent had not been determined, the highest concentration tested was 10 microM (Table 1).
Cell Culture. All cells were maintained in an incubator at 37 degrees C and 5% CO2 with 95% humidity. The PDC lines were cultured according to standard operating procedures established by the NCI PDMR (https://pdmr.cancer.gov). Briefly, all PDCs were thawed and cultured in Matrigel-coated flasks prepared with a working solution of 1X Ham's F-12 nutrient mix, without supplementation (Invitrogen, Waltham, MA, cat. 11765054), 100 U/mL penicillin-streptomycin (Invitrogen, cat. 15140122), and 2.5% Matrigel (Corning Inc., Corning, NY, cat. 354248) for the first three passages. All PDCs were cultured in complete DMEM/F-12 media containing advanced DMEM/F-12 (Invitrogen, cat. 12634028), 4.9% defined fetal bovine serum, heat inactivated (HyClone Laboratories Inc., Logan, UT, cat. SH30070.03HI), 389 ng/mL hydrocortisone (Sigma-Aldrich, cat. H4001), 9.7 ng/mL human EGF recombinant protein (Invitrogen, cat. PHG0313), 23.4 microg/mL adenine (Sigma-Aldrich, cat. A2786), 97.3 U/mL penicillin-streptomycin (Invitrogen, cat. 15140122), 1.9 mM L-glutamine (Invitrogen, cat. 25030081), and 9.7 microM Y-27632 dihydrochloride (Tocris Bioscience, Bristol, United Kingdom, cat. 1254). The PDCs were cultured in complete DMEM/F12 media without 10 microM Y-27632 dihydrochloride for at least two passages prior to the screen. The established cell lines NCI-H1341 and […] were cultured in DMEM/F-12, HEPES (Invitrogen, cat. 11330032), 5% defined fetal bovine serum (HyClone Laboratories Inc., cat. SH30070.03), ITS premix universal culture supplement [insulin (5 microg/mL), transferrin (5 microg/mL), and selenious acid (5 ng/mL)] […]

[1] = curve of first compound, second compound 0.1 µM
[2] = curve of first compound, second compound 0.316 µM
[3] = curve of first compound, second compound 1 µM
[4] = curve of first compound, second compound 3.16 µM
[5] = curve of first compound, second compound 10 µM
[6] = second compound 0.1 µM, first compound 0.0316 µM
[7] = second compound 0.1 µM, first compound 0.1 µM
[8] = second compound 0.1 µM, first compound 0.316 µM
[9] = second compound 0.1 µM, first compound 1 µM
[10] = second compound 0.1 µM, first compound 3.16 µM
[11] = second compound 0.1 µM, first compound 10 µM
[12] = second compound 0.316 µM, first compound 0.0316 µM
[13] = second compound 0.316 µM, first compound 0.1 µM
[14] = second compound 0.316 µM, first compound 0.316 µM
[15] = second compound 0.316 µM, first compound 1 µM
[16] = second compound 0.316 µM, first compound 3.16 µM
[17] = second compound 0.316 µM, first compound 10 µM
[18] = second compound 1 µM, first compound 0.0316 µM
[19] = second compound 1 µM, first compound 0.1 µM
[20] = second compound 1 µM, first compound 0.316 µM
[21] = second compound 1 µM, first compound 1 µM
[22] = second compound 1 µM, first compound 3.16 µM
[23] = second compound 1 µM, first compound 10 µM
[24] = second compound 3.16 µM, first compound 0.0316 µM
[25] = second compound 3.16 µM, first compound 0.1 µM
[26] = second compound 3.16 µM, first compound 0.316 µM
[27] = second compound 3.16 µM, first compound 1 µM
[28] = second compound 3.16 µM, first compound 3.16 µM
[29] = second compound 3.16 µM, first compound 10 µM
[30] = second compound 10 µM, first compound 0.0316 µM
[31] = second compound 10 µM, first compound 0.1 µM
[32] = second compound 10 µM, first compound 0.316 µM
[33] = second compound 10 µM, first compound 1 µM
[34] = second compound 10 µM, first compound 3.16 µM
[35] = second compound 10 µM, first compound 10 µM
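Throughout, for viability, T/C: compound exposure lasted 7 days; 100% = DMSO vehicle control growth.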

Structure (SMILES)	IC50 [1] [µM]	IC50 [2] [µM]	IC50 [3] [µM]	IC50 [4] [µM]	IC50 [5] [µM]	viability, T/C [6] [%]	viability, T/C [7] [%]	viability, T/C [8] [%]	viability, T/C [9] [%]	viability, T/C [10] [%]	viability, T/C [11] [%]	viability, T/C [12] [%]	viability, T/C [13] [%]	viability, T/C [14] [%]	viability, T/C [15] [%]	viability, T/C [16] [%]	viability, T/C [17] [%]	viability, T/C [18] [%]	viability, T/C [19] [%]	viability, T/C [20] [%]	other results
Nc1ncn(C2CC(O)C(CO)S2)c(=O)n1 (configuration not stated)																					viability, T/C (compound 0.000949 µM): 92% and 102% and 111%; viability, T/C (compound 0.003 µM): 109% and 115% and 113%; viability, T/C (compound 0.00949 µM): 102% and 106% and 113%; viability, T/C (compound 0.03 µM): 88% and 106% and 100%; viability, T/C (compound 0.0949 µM): 82.2% and 87.7% and 100%; viability, T/C (compound 0.3 µM): 67.3% and 67.2% and 64.9%; IC50 (curve of compound): > 0.3 µM
CC1COCCN1c1cc(C2(S(C)(=N)=O)CC2)nc(-c2ccnc3[nH]ccc23)n1 (configuration not stated) + Cc1ccccc1N=Nc1ccc(NC(=O)c2ccnn2C)c(C)c1	> 10	> 10	> 10	> 10	> 10	100	99.5	96.6	92.1	78.4	59	98.8	99.2	96.7	92	80.1	58.3	100	100	98.6	viability, T/C [21]: 93.9%; viability, T/C [22]: 78.4%; viability, T/C [23]: 60%; viability, T/C [24]: 95.1%; viability, T/C [25]: 98.1%; viability, T/C [26]: 95.4%; viability, T/C [27]: 88%; viability, T/C [28]: 73.9%; viability, T/C [29]: 58.8%; viability, T/C [30]: 96.1%; viability, T/C [31]: 97.2%; viability, T/C [32]: 93%; viability, T/C [33]: 85.2%; viability, T/C [34]: 74.5%; viability, T/C [35]: 60.8%
COc1ccc([C@@H](O)c2cc(-c3ncnc4cc(N5CCOCC5)ccc34)c(F)cc2Cl)nn1 + Cc1ccccc1N=Nc1ccc(NC(=O)c2ccnn2C)c(C)c1	5.52	4.75	> 10	5.11	4.4	107	104	102	78.2	59.4	41.3	104	97.2	100	78	55.8	41.2	112	106	110	viability, T/C [21]: 75.5%; viability, T/C [22]: 56.4%; viability, T/C [23]: 47.1%; viability, T/C [24]: 89.1%; viability, T/C [25]: 95%; viability, T/C [26]: 89.1%; viability, T/C [27]: 74.6%; viability, T/C [28]: 56.8%; viability, T/C [29]: 41.5%; viability, T/C [30]: 97.8%; viability, T/C [31]: 93.4%; viability, T/C [32]: 87.3%; viability, T/C [33]: 76.9%; viability, T/C [34]: 50.4%; viability, T/C [35]: 44.8%
COc1cc(Nc2ncc3c(n2)-c2ccc(Cl)cc2C(c2c(F)cccc2OC)=NC3)ccc1C(=O)O + CC(CO)NC(=O)c1cc(-c2ccc(Cl)cc2)nn(-c2cnn(C)c2)c1=O	> 10	> 10	> 10	> 10	> 10	86	70.6	66	66.5	61.3	52.6	88.8	73.4	59	62.2	55.2	49.4	95.7	69.3	73.4	viability, T/C [21]: 64.9%; viability, T/C [22]: 55.8%; viability, T/C [23]: 49.5%; viability, T/C [24]: 79.9%; viability, T/C [25]: 71.2%; viability, T/C [26]: 70.2%; viability, T/C [27]: 65.7%; viability, T/C [28]: 54%; viability, T/C [29]: 60.9%; viability, T/C [30]: 88.5%; viability, T/C [31]: 80.8%; viability, T/C [32]: 66%; viability, T/C [33]: 71.3%; viability, T/C [34]: 56.7%; viability, T/C [35]: 55.1%
